Experimental data reported in patent publication US20230255939A1, “Antimicrobial Agent for Non-Human Animal” (ISHIHARA SANGYO KAISHA, LTD, priority 2020, published 2023).
Converted amounts (≈) assume the structure as drawn.

Experiments:
[1] = tested on: Malassezia pachydermatis (ATCC14522 strain); assay: Malassezia otitis externa effect test (dog) (Test Example 3); type: in vivo, dog (Beagle); set-up: Total score (redness, earwax, itching, rash) Immediately before treatment / Total score (redness, earwax, itching, rash) 7 Days after treatment: scale not given here; conditions: for Microbial count (cfu/ml) 7 Days after treatment: 500 ppm agent solution for 1 minute; for Microbial count (cfu/ml) Immediately before treatment: baseline before 500 ppm agent solution; for Total score (redness, earwax, itching, rash) 7 Days after treatment: 5 mL of 500 ppm agent solution for 1 minute; for Improvement rate (%) of microbial count / Improvement rate (%) of symptom total score: 500 ppm for 1 minute, 7 days after treatment; for Total score (redness, earwax, itching, rash) Immediately before treatment: baseline 7 days after inoculation, before 500 ppm agent solution
Protocol: Test Example 3: Malassezia Otitis Externa Effect Test (Dog) Test Variety: Beagle (19 to 20-Month-Old)
Test Microbial Strain: Malassezia Pachydermatis (ATCC14522 Strain)
A colony of the Malassezia microbe pre-cultured (7 days, 30° C.) on a Sabouraud agar medium was suspended in sterilized physiological saline (microbial concentration of 1.0 × 10^6 cells/mL), and 0.1 mL of the resulting suspension was inoculated into both ears of the test animal. 7 Days after the inoculation, both ears were filled with 5 mL of an agent solution (sterilized physiological saline solution supplemented with 5% DMSO) prepared to have a concentration of the test compound of 500 ppm, and after 1 minute, thoroughly washed with sterilized physiological saline solution.
At the same time, the number of the Malassezia microbe present inside the ears of the sample was also investigated by the following method.
The surface of the ear canal was scraped three times using a cotton swab to collect the microbe, and the collected microbe was suspended in 1 mL of PBS (containing 8 g of sodium chloride, 2.9 g of disodium hydrogen phosphate, 0.2 g of potassium chloride, and 0.2 g of potassium dihydrogen phosphate in 1000 mL) supplemented with 1% v/v of Tween80 (polyoxyethylene sorbitan monooleate: manufactured by Kanto Chemical Co., Ltd.) together with the cotton swab. The resulting suspension was serially diluted 10-fold with the PBS, and 0.1 mL thereof was applied to a CHROMagar Malassezia/Candida medium (trade name; peptone, special enzyme substrate mixture, chloramphenicol, olive oil, agar) and cultured at 30° C. for 4 days. After that, the colonies having a pink to purple color were counted, the microbial count score was calculated, and the improvement rate was determined.

[2] = tested on: Malassezia pachydermatis (IFM56528); assay: Antifungal activity test, fungicidal concentration after 1 minute contact (Test Examples 10-1 and 10-2); type: cell-based; conditions: for half fungicidal concentration MFC50: M. pachydermatis IFM56528, colony formation inhibition rate of 50%; for 90% fungicidal concentration MFC90: M. pachydermatis IFM56528, colony formation inhibition rate of 90%; for MFC: Malassezia pachydermatis, 1 min, M. pachydermatis IFM56528, no colony growth, read-out: Minimum fungicidal concentration MFC100
Protocol: Test Example 10-1: Antifungal Activity Test
Test Compound: Compound No. 6
Test Microbial Strain: Malassezia Pachydermatis (IFM56528)
The Malassezia microbe (Malassezia pachydermatis) cultured for 5 to 7 days in a Sabouraud medium (1% peptone, 4% dextrin, 1.5% agar) was suspended in physiological saline, and a suspension thereof was prepared in such a way as to have an absorbance of 0.025 at 600 nm. Thereto, the test compound dissolved in DMSO was added in such a way as to provide a final concentration of 70, 65, 64, 60, 55, 45, 40, 35, 32, 20, 18, or 8 ppm, and after 1 minute, 10 µL of the suspension and 10 mL of physiological saline were placed in a syringe and stirred, and the syringe was connected to a 37 mm Quality Monitor (manufactured by Pall Corporation) followed by filtration and washing. The membrane filter was impregnated as it was with the Sabouraud medium and subjected to culturing at 32° C. for 72 hours, the presence or absence of colony growth was investigated, and the concentration at which there was no colony growth was determined as the minimum fungicidal concentration (MFC100). When there was colony growth, the number of colonies formed there (the number of colonies in the inventive plot) and the number of colonies in a solvent to which the test compound was not added (the number of colonies in the non-agent treated plot) were measured, the colony formation inhibition rate (%) was determined according to the following expression, and the concentration showing a colony formation inhibition rate of 90% was determined as the 90% fungicidal concentration (MFC90), and the concentration showing a colony formation inhibition rate of 50% was determined as half fungicidal concentration (MFC50).
Colony formation inhibition rate (%) = [(number of colonies in non-agent treated plot - number of colonies in inventive plot)/number of colonies in non-agent treated plot] × 100
Test Example 10-2: Antifungal Activity Test
Test Compound: Compound No. 1
The Malassezia microbe (Malassezia pachydermatis) cultured for 5 to 7 days in a Sabouraud medium (1% peptone, 4% dextrin, 1.5% agar) was suspended in physiological saline, and a suspension thereof was prepared in such a way as to have an absorbance of 0.025 at 600 nm. Thereto, the test compound dissolved in DMSO was added in such a way as to provide a final concentration of 500, 250, 200, 190, 180, 170, 160, 150, 140, 130, 125, 120, 110, 100, 90, 80, 70, or 64 ppm, and after 1 minute, 10 µL of the suspension and 10 mL of physiological saline were placed in a syringe and stirred, and the syringe was connected to a 37 mm Quality Monitor (manufactured by Pall Corporation) followed by filtration and washing. The membrane filter was impregnated as it was with the Sabouraud medium and subjected to culturing at 32° C. for 72 hours, the presence or absence of colony growth was investigated, and the concentration at which there was no colony growth was determined as the minimum fungicidal concentration (MFC100). When there was colony growth, the number of colonies formed there (the number of colonies in the inventive plot) and the number of colonies in a solvent to which the test compound was not added (the number of colonies in the non-agent treated plot) were measured, the colony formation inhibition rate (%) was determined according to the following expression, and the concentration showing a colony formation inhibition rate of 90% was determined as the 90% fungicidal concentration (MFC90), and the concentration showing a colony formation inhibition rate of 50% was determined as half fungicidal concentration (MFC50).

Structure (SMILES)	Microbial count (cfu/ml) 7 Days after treatment ([1]; left ear canal swab) [cfu/ml]	Microbial count (cfu/ml) Immediately before treatment ([1]; left ear canal swab)	Total score (redness, earwax, itching, rash) 7 Days after treatment ([1]; left ear)	Improvement rate (%) of microbial count ([1]; left ear) [%]	Improvement rate (%) of symptom total score ([1]; left ear) [%]	Total score (redness, earwax, itching, rash) Immediately before treatment ([1]; left ear)	Microbial count (cfu/ml) 7 Days after treatment ([1]; right ear canal swab) [cfu/ml]	Microbial count (cfu/ml) Immediately before treatment ([1]; right ear canal swab)	Total score (redness, earwax, itching, rash) 7 Days after treatment ([1]; right ear)	Improvement rate (%) of microbial count ([1]; right ear) [%]	Improvement rate (%) of symptom total score ([1]; right ear) [%]	Total score (redness, earwax, itching, rash) Immediately before treatment ([1]; right ear)	half fungicidal concentration MFC50 [2] [ppm]	90% fungicidal concentration MFC90 [2] [ppm]	MFC [2] [µg/mL]
Cc1ccc(-c2nc(C#N)[nH]c2Cl)cc1Cl [Compound No. 6, 5-chloro-4-(3-chloro-4-methylphenyl)-1H-imidazole-2-carbonitrile]	20	5,300 cfu/ml	0	99.6	100	3	20	2,800 cfu/ml	0	99.3	100	3	8	20	40 (≈ 159 µM)
Cc1ccc(-c2nc(C#N)[nH]c2Cl)cc1 [Compound No. 1, 5-Chloro-4-(4-methylphenyl)-1H-imidazole-2-carbonitrile]	30	900 cfu/ml	1	96.7	67	3	30	1,300 cfu/ml	1	97.7	67	3	64	130	160 (≈ 735 µM)
